# Laboratory results published in PubChem BioAssay AID220 (DTP/NCI, 2004).
# Values joined by “and” are separate entries in the source; they are usually repeats but may differ in a detail not shown here. Identical values can stand only once. Results filed as inconclusive are left out.
# Test system: CD8F1 mice, subcutaneous mammary adenocarcinoma, T/C%
# Assay: NCI In Vivo Anticancer Drug Screen. Data for tumor model Mammary Adenocarcinoma CD8F1 (subcutaneous) in CD8F1
# Conditions: higher = larger tumour
# Outline: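 Antitumor activity is assessed in transplantable-tumor mice by comparing the treated group with a vehicle-treated control group. Survival or tumor size serves as the measure, reported as T divided by C.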
# [1] = endpoint: median tumor weight change, dose: 125.0 mg/kg/injection, schedule: Q01DX001 (ip), vehicle: saline with Tween-80
# [2] = endpoint: median tumor weight change, dose: 250.0 mg/kg/injection, schedule: Q01DX001 (ip), vehicle: saline with Tween-80
# [3] = endpoint: median tumor weight change, dose: 500.0 mg/kg/injection, schedule: Q01DX001 (ip), vehicle: saline with Tween-80
# [4] = endpoint: median tumor weight (est.), dose: 12.5 mg/kg/injection, schedule: Q07DX005 (ip), vehicle: Klucel (hydroxypropylcellulose) (HPC)
# [5] = endpoint: median tumor weight (est.), dose: 25.0 mg/kg/injection, schedule: Q07DX005 (ip), vehicle: Klucel (hydroxypropylcellulose) (HPC)
# [6] = endpoint: median tumor weight (est.), dose: 50.0 mg/kg/injection, schedule: Q07DX005 (ip), vehicle: Klucel (hydroxypropylcellulose) (HPC)
# [7] = endpoint: median tumor weight (est.), dose: 200.0 mg/kg/injection, schedule: Q07DX005 (ip), vehicle: Klucel (hydroxypropylcellulose) (HPC)
# [8] = endpoint: median tumor weight (est.), dose: 12.5 mg/kg/injection, schedule: Q07DX005 (ip), vehicle: saline with Tween-80
# [9] = endpoint: median tumor weight (est.), dose: 25.0 mg/kg/injection, schedule: Q07DX005 (ip), vehicle: saline with Tween-80
# [10] = endpoint: median tumor weight (est.), dose: 50.0 mg/kg/injection, schedule: Q07DX005 (ip), vehicle: saline with Tween-80
# [11] = endpoint: median tumor weight (est.), dose: 100.0 mg/kg/injection, schedule: Q07DX005 (ip), vehicle: saline with Tween-80
# [12] = endpoint: median tumor weight (est.), dose: 200.0 mg/kg/injection, schedule: Q07DX005 (ip), vehicle: saline with Tween-80
# [13] = endpoint: median tumor weight (est.), dose: 400.0 mg/kg/injection, schedule: Q07DX005 (ip), vehicle: saline with Tween-80
# [14] = endpoint: median tumor weight (est.), dose: 100.0 mg/kg/injection, schedule: Q07DX005 (ip), vehicle: Klucel (hydroxypropylcellulose) (HPC)
structure (smiles),measurement,setting,value
O=[N+]([O-])c1ccc(Cl)c([N+](=O)[O-])c1,T/C,"endpoint: median tumor weight (est.), dose: 15.0 mg/kg/injection, schedule: Q07DX005 (ip), vehicle: saline with Tween-80",78 % of control
same,T/C,"endpoint: median tumor weight (est.), dose: 120.0 mg/kg/injection, schedule: Q07DX005 (ip), vehicle: saline with Tween-80",61 % of control and 83 % of control
same,T/C,"endpoint: median tumor weight (est.), dose: 240.0 mg/kg/injection, schedule: Q07DX005 (ip), vehicle: saline with Tween-80",65 % of control
Nc1ccc2ccc(NS(=O)(=O)N3CCCCC3)cc2c1,T/C,[1],66 % of control
same,T/C,[2],73 % of control
same,T/C,[3],87 % of control
same,T/C,"endpoint: median tumor weight change, dose: 1000.0 mg/kg/injection, schedule: Q01DX001 (ip), vehicle: saline with Tween-80",31 % of control
CCCCCCCCCCCCN1C(C)=CS/C1=C\C=C\c1scc(C)[n+]1CCCCCCCCCCCC,T/C,"endpoint: median tumor weight change, dose: 7.82 mg/kg/injection, schedule: Q01DX001 (ip), vehicle: saline with Tween-80",80 % of control
same,T/C,"endpoint: median tumor weight change, dose: 15.63 mg/kg/injection, schedule: Q01DX001 (ip), vehicle: saline with Tween-80",92 % of control
same,T/C,"endpoint: median tumor weight change, dose: 31.25 mg/kg/injection, schedule: Q01DX001 (ip), vehicle: saline with Tween-80",65 % of control
CC(CN1CC(=O)NC(=O)C1)N1CC(=O)NC(=O)C1 (configuration not stated),T/C,[4],59 % of control
same,T/C,[5],84 % of control
same,T/C,[6],41 % of control
same,T/C,[7],21 % of control and 29 % of control
same,T/C,"endpoint: median tumor weight (est.), dose: 400.0 mg/kg/injection, schedule: Q07DX005 (ip), vehicle: Klucel (hydroxypropylcellulose) (HPC)",5 % of control and 11 % of control
C[C@@](O)(/C=C/[C@H]1CC=CC(=O)O1)[C@@H](C[C@@H](O)\C=C/C=C\C=C\CO)OP(=O)(O)O,T/C,"endpoint: median tumor weight change, dose: 15.62 mg/kg/injection, schedule: Q01DX001 (ip), vehicle: other",99 % of control
same,T/C,"endpoint: median tumor weight change, dose: 31.25 mg/kg/injection, schedule: Q01DX001 (ip), vehicle: other",83 % of control
same,T/C,"endpoint: median tumor weight change, dose: 62.5 mg/kg/injection, schedule: Q01DX001 (ip), vehicle: other",42 % of control
O=CC(=O)c1ccc(O)cc1,T/C,"endpoint: median tumor weight (est.), dose: 12.5 mg/kg/injection, schedule: Q07DX005 (ip), vehicle: suspension in saline",102 % of control
same,T/C,"endpoint: median tumor weight (est.), dose: 25.0 mg/kg/injection, schedule: Q07DX005 (ip), vehicle: suspension in saline",111 % of control
same,T/C,"endpoint: median tumor weight (est.), dose: 50.0 mg/kg/injection, schedule: Q07DX005 (ip), vehicle: suspension in saline",123 % of control
same,T/C,"endpoint: median tumor weight (est.), dose: 100.0 mg/kg/injection, schedule: Q07DX005 (ip), vehicle: suspension in saline",114 % of control
COc1cc(NCc2ccc3nc(N)nc(N)c3c2C)cc(OC)c1OC,T/C,"endpoint: median tumor weight (est.), dose: 1.88 mg/kg/injection, schedule: Q07DX005 (ip), vehicle: sodium bicarbonate",82 % of control
same,T/C,"endpoint: median tumor weight (est.), dose: 3.75 mg/kg/injection, schedule: Q07DX005 (ip), vehicle: sodium bicarbonate",63 % of control and 82 % of control
same,T/C,"endpoint: median tumor weight (est.), dose: 7.5 mg/kg/injection, schedule: Q07DX005 (ip), vehicle: sodium bicarbonate",114 % of control
same,T/C,"endpoint: median tumor weight (est.), dose: 35.0 mg/kg/injection, schedule: Q04DX007 (ip), vehicle: water",100 % of control
same,T/C,"endpoint: median tumor weight (est.), dose: 35.0 mg/kg/injection, schedule: Q07DX005 (ip), vehicle: water",87 % of control
same,T/C,"endpoint: median tumor weight (est.), dose: 41.5 mg/kg/injection, schedule: Q04DX007 (ip), vehicle: water",59 % of control
same,T/C,"endpoint: median tumor weight (est.), dose: 44.0 mg/kg/injection, schedule: Q07DX005 (ip), vehicle: water",44 % of control
same,T/C,"endpoint: median tumor weight (est.), dose: 46.0 mg/kg/injection, schedule: Q07DX005 (ip), vehicle: water",26 % of control
same,T/C,"endpoint: median tumor weight (est.), dose: 47.4 mg/kg/injection, schedule: Q04DX007 (ip), vehicle: water",29 % of control
same,T/C,"endpoint: median tumor weight (est.), dose: 53.0 mg/kg/injection, schedule: Q04DX007 (ip), vehicle: water",66 % of control
same,T/C,"endpoint: median tumor weight (est.), dose: 53.0 mg/kg/injection, schedule: Q07DX005 (ip), vehicle: saline",5 % of control
same,T/C,"endpoint: median tumor weight (est.), dose: 53.0 mg/kg/injection, schedule: Q07DX005 (ip), vehicle: suspension in saline",67 % of control
same,T/C,"endpoint: median tumor weight (est.), dose: 62.2 mg/kg/injection, schedule: Q04DX007 (ip), vehicle: water",29 % of control
same,T/C,"endpoint: median tumor weight (est.), dose: 66.0 mg/kg/injection, schedule: Q07DX005 (ip), vehicle: water",111 % of control
same,T/C,"endpoint: median tumor weight (est.), dose: 70.0 mg/kg/injection, schedule: Q07DX005 (ip), vehicle: water",44 % of control
same,T/C,"endpoint: median tumor weight (est.), dose: 71.1 mg/kg/injection, schedule: Q04DX007 (ip), vehicle: water",45 % of control
same,T/C,"endpoint: median tumor weight (est.), dose: 80.0 mg/kg/injection, schedule: Q04DX007 (ip), vehicle: water",121 % of control
same,T/C,"endpoint: median tumor weight (est.), dose: 80.0 mg/kg/injection, schedule: Q07DX005 (ip), vehicle: suspension in saline",23 % of control
same,T/C,"endpoint: median tumor weight (est.), dose: 99.0 mg/kg/injection, schedule: Q07DX005 (ip), vehicle: water",24 % of control
same,T/C,"endpoint: median tumor weight (est.), dose: 105.0 mg/kg/injection, schedule: Q07DX005 (ip), vehicle: water",41 % of control
same,T/C,"endpoint: median tumor weight (est.), dose: 120.0 mg/kg/injection, schedule: Q04DX007 (ip), vehicle: water",8 % of control
same,T/C,"endpoint: median tumor weight (est.), dose: 120.0 mg/kg/injection, schedule: Q07DX005 (ip), vehicle: sodium bicarbonate",37 % of control
OC1CCCC2CCCNC12 (configuration not stated),T/C,"endpoint: median tumor weight (est.), dose: 6.25 mg/kg/injection, schedule: Q07DX005 (ip), vehicle: saline with Tween-80",206 % of control
same,T/C,[8],102 % of control
same,T/C,[9],171 % of control
same,T/C,[10],73 % of control
COc1ccc2cc1Oc1ccc(cc1)C[C@H]1c3cc(c(OC)cc3CCN1C)Oc1c(OC)c(OC)cc3c1[C@H](C2)N(C)CC3,T/C,[9],115 % of control
same,T/C,[10],102 % of control
same,T/C,[11],117 % of control
same,T/C,[12],64 % of control
same,T/C,[13],37 % of control
Nc1ncnc2c1ncn2C1OC(CO)CC1O (configuration not stated),T/C,"endpoint: median tumor weight (est.), dose: 37.5 mg/kg/injection, schedule: Q07DX005 (ip), vehicle: Klucel (hydroxypropylcellulose) (HPC)",102 % of control
same,T/C,"endpoint: median tumor weight (est.), dose: 75.0 mg/kg/injection, schedule: Q07DX005 (ip), vehicle: Klucel (hydroxypropylcellulose) (HPC)",88 % of control
C[C@H]1C[C@@H]2[C@H]([C@@H](O)C[C@@]3(C)[C@H]2CC[C@]3(O)C(=O)CO)[C@@]2(C)C=CC(=O)C=C12,T/C,"endpoint: median tumor weight (est.), dose: 6.25 mg/kg/injection, schedule: Q07DX005 (ip), vehicle: Klucel (hydroxypropylcellulose) (HPC)",70 % of control
same,T/C,[4],63 % of control
same,T/C,[5],63 % of control
same,T/C,[6],60 % of control
same,T/C,[14],53 % of control
same,T/C,[7],28 % of control
O=NN(CCCl)C(=O)NCCO,T/C,"endpoint: median tumor weight change, dose: 4.0 mg/kg/injection, schedule: Q01DX001 (ip), vehicle: water",92 % of control
same,T/C,"endpoint: median tumor weight change, dose: 8.0 mg/kg/injection, schedule: Q01DX001 (ip), vehicle: water",86 % of control
same,T/C,"endpoint: median tumor weight change, dose: 16.0 mg/kg/injection, schedule: Q01DX001 (ip), vehicle: water",58 % of control
C/C=C/c1cc2c(c(=O)o1)C(=O)[C@@H](O)[C@H](C)O2,T/C,[8],89 % of control
same,T/C,[9],87 % of control
same,T/C,[10],102 % of control
same,T/C,[11],77 % of control
same,T/C,[12],82 % of control
Cc1cc(N(CCOS(C)(=O)=O)CCOS(C)(=O)=O)ccc1C=Nc1ccc(-c2nc(Cc3ccccc3)sc2C)cc1,T/C,[4],18 % of control
same,T/C,[14],4 % of control and 9 % of control
same,T/C,[7],10 % of control
CC1(C)N=C(N)N=C(N)N1c1ccc(F)c(C(F)(F)F)c1,T/C,"endpoint: median tumor weight (est.), dose: 6.25 mg/kg/injection, schedule: Q07DX005 (ip), vehicle: saline",97 % of control
same,T/C,"endpoint: median tumor weight (est.), dose: 100.0 mg/kg/injection, schedule: Q07DX005 (ip), vehicle: saline",61 % of control
O=C1N=C(Oc2ccccc2)SC1=O,T/C,"endpoint: median tumor weight change, dose: 62.5 mg/kg/injection, schedule: Q01DX001 (ip), vehicle: saline with Tween-80",43 % of control
same,T/C,"endpoint: median tumor weight change, dose: 125.0 mg/kg/injection, schedule: Q01DX001 (ip), vehicle: DMSO",66 % of control
c1ccc2sc(SSN3CC4CCC(CC4)C3)nc2c1,T/C,[8],26 % of control
same,T/C,[9],33 % of control
same,T/C,[10],101 % of control
same,T/C,[11],81 % of control
same,T/C,[12],62 % of control
same,T/C,[13],53 % of control
[O-][n+]1c(CN2CCCCC2)nc2cccc3c2c1-c1ccccc1-3,T/C,[1],78 % of control
same,T/C,[2],104 % of control
same,T/C,[3],84 % of control
O=C(O)C(O)C(O)C1[O][Sb][O]C1C(=O)O (configuration not stated),T/C,"endpoint: median tumor weight change, dose: 31.0 mg/kg/injection, schedule: Q01DX001 (ip), vehicle: saline",115 % of control
same,T/C,"endpoint: median tumor weight change, dose: 62.0 mg/kg/injection, schedule: Q01DX001 (ip), vehicle: saline",93 % of control
